system: mdx mice; experiment: Forced exercise treadmill test: fatigue in mdx mice; type: in vivo, mdx mouse; conditions: 50 mg/kg ip daily for 5 weeks in combination with prednisolone, FIG. 4
Protocol: The effect of combinations of a compound of formula (1) with a corticosteroid (prednisolone) was examined by measuring fatigue induced by a forced exercise regime in mdx mice. Four to five week-old male mdx mice were forced to exercise (30 min running on horizontal treadmill at 12 m/min twice a week on the same day and at the same time) over a five week treatment course. Each treatment group included 6 mice. At the end of the treatment course, exhaustion was induced by running on a horizontal treadmill at 5 m/min for 5 min, with incremental speed increases of 1 m/min each minute until exhaustion. The total distance run was then measured. […] Sedentary and vehicle only groups acted as negative controls.

Structure (SMILES)	exercise-induced fatigue (total distance run to exhaustion)
CCS(=O)(=O)c1ccc2oc(-c3ccc4ccccc4c3)nc2c1 [Example 390, 5-(ethylsulfonyl)-2-(naphthalen-2-yl)benzo[d]oxazole]	act in synergy to reduce exercise-induced fatigue
C[C@]12C=CC(=O)C=C1CC[C@@H]1[C@@H]2[C@@H](O)C[C@@]2(C)[C@H]1CC[C@]2(O)C(=O)CO [PDN, prednisolone, reference compound]	act in synergy to reduce exercise-induced fatigue

system: Utrophin A promoter linked to a luciferase reporter gene; experiment: Luciferase reporter assay (murine H2K cells); type: cell-based; conditions: Mus musculus, H2K mdx, luciferase level relative to control; H2K/mdx/Utro A reporter cells; compound 10 μM final concentration; read-out: Activity
Outline: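 Compound at 10 μM final was applied for 48 hrs to plated H2K mdx myoblasts (33° C, 10% CO2, interferon-containing medium) bearing a luciferase gene under the utrophin A promoter. Luminescence from lysed cells served as read-out.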

Structure (SMILES)	activity at 10 µM
CCS(=O)(=O)c1ccc2oc(-c3ccc4ccccc4c3)nc2c1 [Example 390, 5-(ethylsulfonyl)-2-(naphthalen-2-yl)benzo[d]oxazole]	301 to 400%

same assay, conditions: luciferase reporter assay in murine H2K cells; classified relative to control

Structure (SMILES)	Activity
Cc1ccc(C(=O)Nc2ccc3c(c2)ncn3C)cc1 [Example 670]	++ (Between 201% and 300% relative to control)
O=C(Nc1nc2ccccc2s1)c1cc(Br)ccc1Cl [Example 671]	++ (Between 201% and 300% relative to control)
Cc1ccc2nc(-c3ccc(NC(=O)c4cccs4)cc3)oc2c1 [Example 672]	++ (Between 201% and 300% relative to control)
Nc1c(C(=O)Nc2ccccc2F)sc2nc3c(cc12)CCC3 [Example 673]	++ (Between 201% and 300% relative to control)
OCc1cn(-c2ccccc2)nc1-c1cc2ccccc2o1 [Example 674]	++ (Between 201% and 300% relative to control)
COc1ccc(-c2nc3cc(C)ccc3o2)cc1 [Example 675]	++ (Between 201% and 300% relative to control)
CCOc1ccc(NCc2nc3ccccc3n2C)cc1 [Example 676]	++ (Between 201% and 300% relative to control)
Cc1ccc2oc(-c3ccc(Cl)c(NC(=O)c4ccco4)c3)nc2c1 [Example 677]	++ (Between 201% and 300% relative to control)
Cc1nc(Nc2nc3ccccc3o2)nc2c1CCC2 [Example 678]	++ (Between 201% and 300% relative to control)
O=C(Nc1nc2ccccc2[nH]1)c1cccc(Cl)c1 [Example 679]	++ (Between 201% and 300% relative to control)
O=C(Nc1ccc(-c2nc3ccccc3s2)cc1)C1CCCO1 (centres unmarked) [Example 680]	++ (Between 201% and 300% relative to control)
CC(=O)c1c(C)nc(Nc2nc3ccccc3o2)nc1C [Example 681]	++ (Between 201% and 300% relative to control)
Cc1ccnc(Nc2nc3ccccc3o2)n1 [Example 682]	++ (Between 201% and 300% relative to control)
CN(C)S(=O)(=O)c1ccc2nc(NC(=O)c3cccs3)sc2c1 [Example 683]	++ (Between 201% and 300% relative to control)
Cc1ccc2oc(-c3cc(NC(=O)c4cncc(Br)c4)ccc3O)nc2c1 [Example 684]	++ (Between 201% and 300% relative to control)
O=C(CSc1nc[nH]n1)Nc1ccc(-c2nc3ccccc3s2)cc1 [Example 685]	++ (Between 201% and 300% relative to control)
COc1ccc2oc(-c3ccc(C)c(N)c3)nc2c1 [Example 686]	++ (Between 201% and 300% relative to control)
CNS(=O)(=O)c1ccc2nc(NC(=O)c3cccs3)sc2c1 [Example 687]	++ (Between 201% and 300% relative to control)
Cc1ccc2sc(-c3ccc(NC(=O)c4cc(-n5cnnc5)ccc4Cl)cc3)nc2c1 [Example 688]	++ (Between 201% and 300% relative to control)
O=C(Nc1ccccc1F)C(=O)c1c[nH]c2ccccc12 [Example 689]	++ (Between 201% and 300% relative to control)

system: mdx hearts; experiment: not given; conditions: Khairallah et al. (2008); cited from earlier work

Structure (SMILES)	myocardial contractile performance
CCCc1nn(C)c2c(=O)[nH]c(-c3cc(S(=O)(=O)N4CCN(C)CC4)ccc3OCC)nc12 [sildenafil]	prevents deterioration of myocardial contractile performance

system: skeletal muscle cells; experiment: Myotube formation and muscle protein expression in primary cultures of skeletal muscle cells; type: cell-based, mice; conditions: myotube cultures treated for 7 days; Western blot
Protocol: GTE and EGCG also display unexpected pro myogenic properties. Primary cultures of skeletal muscle cells were established from both normal and dystrophic mice and treated with GTE and EGCG for 1-7 days. […] The amount of myotubes reached similar level with both agents compared to control thereafter. Western-blot analysis was performed on myotube cultures treated for 7 days.

Structure (SMILES)	expression of muscle-specific proteins (dystrophin, sarcomeric alpha actinin, MyHC)
O=C(O[C@@H]1Cc2c(O)cc(O)cc2O[C@@H]1c1cc(O)c(O)c(O)c1)c1cc(O)c(O)c(O)c1 [EGCG, epigallocatechin gallate]	promoted the expression of several muscle-specific proteins

same assay, conditions: primary skeletal muscle cell cultures from normal and dystrophic mice; within first 2-4 days; MyHC staining

Structure (SMILES)	rate of formation of myotubes
O=C(O[C@@H]1Cc2c(O)cc(O)cc2O[C@@H]1c1cc(O)c(O)c(O)c1)c1cc(O)c(O)c(O)c1 [EGCG, epigallocatechin gallate]	concentration-dependently stimulated the rate of formation of myotubes
